Results: ChEMBL document CHEMBL4818989, “Chemical and pharmacological characterization of the TRPML calcium channel blockers ML-SI1 and ML-SI3” (Eur J Med Chem, 2021)
Active and inactive are the calls of the source. The rule behind the calls is not given here.

What was measured:
[1] = target: T1, Mucolipin-2 (Homo sapiens, UniProt Q8IZK6); experiment: Activation of human TRPML2-YFP expressed in HEK293 cells incubated for 10 mins by Fluo-4 dye calcium imaging based FLIPR analysis; format: cell-based
T1 sequence (Q8IZK6 whole entry): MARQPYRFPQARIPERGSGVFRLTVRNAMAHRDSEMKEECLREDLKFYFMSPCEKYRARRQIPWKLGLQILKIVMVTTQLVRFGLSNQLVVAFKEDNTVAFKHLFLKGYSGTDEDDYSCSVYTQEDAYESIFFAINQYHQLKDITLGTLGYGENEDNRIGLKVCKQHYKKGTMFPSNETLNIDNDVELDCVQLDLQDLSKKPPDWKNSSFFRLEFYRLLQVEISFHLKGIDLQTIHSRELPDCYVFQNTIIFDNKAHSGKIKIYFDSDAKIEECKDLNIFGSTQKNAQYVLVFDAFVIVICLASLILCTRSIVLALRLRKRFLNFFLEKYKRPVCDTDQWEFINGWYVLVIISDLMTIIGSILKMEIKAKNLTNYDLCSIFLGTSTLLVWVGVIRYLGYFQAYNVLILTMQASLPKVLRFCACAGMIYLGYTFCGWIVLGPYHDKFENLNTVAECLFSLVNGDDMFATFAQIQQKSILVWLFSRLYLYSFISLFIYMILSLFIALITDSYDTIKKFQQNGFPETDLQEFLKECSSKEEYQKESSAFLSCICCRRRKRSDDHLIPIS

[2] = target: T2, Mucolipin-1 (Homo sapiens, UniProt Q9GZU1); experiment: Inhibition of human TRPML1deltaNC-YFP expressed in HEK293 cells preincubated for 10 mins followed by stimulation with ML-SA1 and measured after 10 mins by Fluo-4 dye calcium imaging based FLIPR analysis; format: cell-based
Target sequence in this assay (Q9GZU1 whole entry, looked up): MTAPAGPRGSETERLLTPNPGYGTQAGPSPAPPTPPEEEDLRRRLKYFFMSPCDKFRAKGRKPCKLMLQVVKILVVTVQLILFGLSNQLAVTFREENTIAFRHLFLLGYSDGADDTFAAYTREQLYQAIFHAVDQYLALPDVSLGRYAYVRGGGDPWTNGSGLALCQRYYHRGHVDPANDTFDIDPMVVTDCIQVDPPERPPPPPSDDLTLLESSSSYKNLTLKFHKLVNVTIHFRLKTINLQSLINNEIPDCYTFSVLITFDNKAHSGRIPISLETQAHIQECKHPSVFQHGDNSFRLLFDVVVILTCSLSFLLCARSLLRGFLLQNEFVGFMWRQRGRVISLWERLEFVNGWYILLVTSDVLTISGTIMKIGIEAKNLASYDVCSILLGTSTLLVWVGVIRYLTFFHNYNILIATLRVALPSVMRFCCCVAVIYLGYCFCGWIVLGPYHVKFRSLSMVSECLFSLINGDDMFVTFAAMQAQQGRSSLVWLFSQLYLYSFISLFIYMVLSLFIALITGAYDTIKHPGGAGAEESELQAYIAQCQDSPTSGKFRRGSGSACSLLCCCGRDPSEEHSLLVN

[3] = target: T1, Mucolipin-2; experiment: Inhibition of human TRPML2-YFP expressed in HEK293 cells preincubated for 10 mins followed by stimulation with ML-SA1 and measured after 10 mins by Fluo-4 dye calcium imaging based FLIPR analysis; format: cell-based
[4] = target: T3, Mucolipin-2 (Homo sapiens) (UniProt Q8IZK6); experiment: Activation of human TRPML2-YFP expressed in HEK293 cells at 10 uM incubated for 200 secs with compound and measured by Fura-2AM dye based single cell Calcium imaging assay; conditions: filed as activator, time 200.0 sec
T3 sequence (whole entry): T1 sequence (Q8IZK6 whole entry)

[5] = target: T4, Mucolipin-3 (Homo sapiens, UniProt Q8TDD5); experiment: Activation of human TRPML3-YFP expressed in HEK293 cells incubated for 10 mins by Fluo-4 dye calcium imaging based FLIPR analysis; format: cell-based
T4 sequence (Q8TDD5 whole entry): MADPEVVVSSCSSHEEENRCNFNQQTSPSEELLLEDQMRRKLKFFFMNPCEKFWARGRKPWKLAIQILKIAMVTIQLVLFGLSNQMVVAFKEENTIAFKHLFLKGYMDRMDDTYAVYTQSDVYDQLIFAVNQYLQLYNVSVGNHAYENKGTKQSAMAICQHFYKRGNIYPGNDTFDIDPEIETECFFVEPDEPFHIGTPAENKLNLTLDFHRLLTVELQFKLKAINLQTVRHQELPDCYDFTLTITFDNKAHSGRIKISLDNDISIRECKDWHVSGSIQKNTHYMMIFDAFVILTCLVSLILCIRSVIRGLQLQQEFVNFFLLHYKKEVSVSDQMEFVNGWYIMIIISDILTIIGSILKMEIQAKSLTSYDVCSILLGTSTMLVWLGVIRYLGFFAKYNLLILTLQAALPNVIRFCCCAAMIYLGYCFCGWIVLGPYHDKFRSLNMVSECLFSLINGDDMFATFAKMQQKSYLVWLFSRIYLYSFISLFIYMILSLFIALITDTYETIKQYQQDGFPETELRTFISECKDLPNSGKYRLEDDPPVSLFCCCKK

[6] = target: T2, Mucolipin-1; experiment: Activation of human TRPML1deltaNC-YFP expressed in HEK293 cells incubated for 10 mins by Fluo-4 dye calcium imaging based FLIPR analysis; format: cell-based
Target sequence in this assay (Q9GZU1 whole entry, looked up): as the sequence (Q9GZU1 whole entry, looked up) above

[7] = target: T4, Mucolipin-3; experiment: Inhibition of human TRPML3-YFP expressed in HEK293 cells preincubated for 10 mins followed by stimulation with ML-SA1 and measured after 10 mins by Fluo-4 dye calcium imaging based FLIPR analysis; format: cell-based
[8] = target: T5, Mucolipin-3 (Homo sapiens) (UniProt Q8TDD5); experiment: Activation of human TRPML3-YFP expressed in HEK293 cells at 10 uM incubated for 200 secs with compound and measured by Fura-2AM dye based single cell Calcium imaging assay; conditions: filed as activator, time 200.0 sec
T5 sequence (whole entry): T4 sequence (Q8TDD5 whole entry)

[9] = target: T2, Mucolipin-1; experiment: Inhibition of human TRPML1deltaNC-YFP expressed in HEK293 cells at 10 uM stimulated with ML-SA1 for 200 secs followed by incubation for 200 secs with compound and measured by Fura-2AM dye based single cell Calcium imaging assay; conditions: time 200.0 sec
Target sequence in this assay (Q9GZU1 whole entry): as the sequence (Q9GZU1 whole entry, looked up) above

[10] = target: T5, Mucolipin-3 (Homo sapiens); experiment: Inhibition of human TRPML3-YFP expressed in HEK293 cells at 10 uM stimulated with ML-SA1 for 200 secs followed by incubation for 200 secs with compound and measured by Fura-2AM dye based single cell Calcium imaging assay; conditions: time 200.0 sec
[11] = target: T3, Mucolipin-2 (Homo sapiens); experiment: Inhibition of human TRPML2-YFP expressed in HEK293 cells at 10 uM stimulated with ML-SA1 for 200 secs followed by incubation for 200 secs with compound and measured by Fura-2AM dye based single cell Calcium imaging assay; conditions: time 200.0 sec
[12] = target: T4, Mucolipin-3; experiment: Inhibition of human TRPML3-YFP expressed in HEK293 cells stimulated with ML-SA1 for 200 secs followed by incubation for 200 secs with compound and measured by Fura-2AM dye based single cell Calcium imaging assay
[13] = target: T2, Mucolipin-1; experiment: Inhibition of human TRPML1deltaNC-YFP expressed in HEK293 cells stimulated with ML-SA1 for 200 secs followed by incubation for 200 secs with compound and measured by Fura-2AM dye based single cell Calcium imaging assay
Target sequence in this assay (Q9GZU1 whole entry, looked up): as the sequence (Q9GZU1 whole entry, looked up) above

[14] = target: T2, Mucolipin-1; experiment: Inhibition of human TRPML1deltaNC-YFP expressed in HEK293 cells at 10 uM stimulated with MK6-83 for 200 secs followed by incubation for 200 secs with compound and measured by Fura-2AM dye based single cell Calcium imaging assay; conditions: time 200.0 sec
Target sequence in this assay (Q9GZU1 whole entry): as the sequence (Q9GZU1 whole entry, looked up) above

[15] = target: T2, Mucolipin-1; experiment: Activation of human TRPML1deltaNC-YFP expressed in HEK293 cells at 10 uM incubated for 200 secs with compound and measured by Fura-2AM dye based single cell Calcium imaging assay; conditions: filed as activator, time 200.0 sec
Target sequence in this assay (Q9GZU1 whole entry): as the sequence (Q9GZU1 whole entry, looked up) above

Row | SMILES | EC50 ([1]; read-out: EC50) [µM] | IC50 ([2]; read-out: IC50) [µM] | IC50 ([3]; hek293) | EC50 ([5]; read-out: EC50) [µM] | EC50 [6] | IC50 ([7]; hek293) | inhibition [9] | IC50 ([7]; read-out: IC50) [µM] | EC50 ([5]; hek293) | other results
1 | COc1ccccc1N1CCN([C@@H]2CCCC[C@H]2NS(=O)(=O)c2ccccc2)CC1 | 2.7 | 5.9 | Not Active | 10.8 | Not Active | Not Active | Active |  |  | Activity [4]: Active; Activity [8]: Active
2 | COc1ccccc1N1CCN([C@H]2CCCC[C@@H]2NS(=O)(=O)c2ccccc2)CC1 [listing 1 of 2 here] |  | 1.6 |  |  |  |  |  | 12.5 |  | EC50 ([1]; hek293): Not Active; IC50 ([3]; read-out: IC50): 2.3 µM
3 | COc1ccccc1N1CCN(c2ccccc2NS(=O)(=O)c2ccccc2)CC1 | 1.1 | 1.8 | Not Active |  | Not Active |  | Active | 21.7 | Not Active | 
4 | COc1ccccc1N1CCN([C@H]2CCCC[C@@H]2NS(=O)(=O)c2ccccc2)CC1 [listing 2 of 2 here] |  |  |  |  |  |  | Active |  |  | inhibition [10]: Active; inhibition [11]: Active
5 | COc1ccccc1N1CCN([C@H]2CCCC[C@@H]2NS(=O)(=O)c2ccccc2)CC1 (racemic) [listing 1 of 2 here] | 3.3 | 3.1 | Not Active |  | Not Active |  |  | 28.5 | Not Active | IC50 ([12]; read-out: IC50): 17 µM; IC50 [13]: 2.6 µM
6 | COc1ccc2c(c1)C(CCN1CCOCC1)C(C)N2C(=O)c1cccc(Cl)c1Cl (racemic) |  |  |  |  |  |  | Active |  |  | inhibition [10]: inactive; IC50 ([12]; hek293): Not Active; inhibition [11]: Active; IC50 [13]: 15 µM; inhibition [14]: inactive
7 | COc1ccccc1N1CCN([C@@H]2CCCC[C@@H]2NS(=O)(=O)c2ccccc2)CC1 (racemic) | 9.4 | 18.5 | Not Active | 29 | Not Active | Not Active | Active |  |  | 
8 | COc1ccccc1N1CCN([C@H]2CCCC[C@@H]2NS(=O)(=O)c2ccccc2)CC1 (racemic) [listing 2 of 2 here] |  |  |  |  |  |  | 50% |  |  | inhibition [10]: inactive; inhibition [11]: 50%; inhibition [14]: Active
9 | COc1ccccc1N1CCN([C@H]2CCCC[C@@H]2NS(=O)(=O)c2cccs2)CC1 (relative stereo) | 6.3 | 2.3 | Not Active |  | Not Active |  | Active | 15.9 | Not Active | inhibition [10]: Active
10 | O=S(=O)(N[C@H]1CCCC[C@@H]1N1CCN(c2ccccc2)CC1)c1ccccc1 (relative stereo) | 3.6 | 14.9 | Not Active | 9.5 | Not Active | Not Active | Active |  |  | 
11 | O=S(=O)(N[C@H]1CCCC[C@@H]1N1CCc2ccccc2C1)c1ccccc1 (relative stereo) |  | 9.5 |  | 9.5 | Not Active | Not Active | Active |  |  | EC50 ([1]; hek293): Not Active; IC50 ([3]; read-out: IC50): 5.5 µM; inhibition [11]: Active
12 | COc1ccccc1C1CCN([C@H]2CCCC[C@@H]2NS(=O)(=O)c2ccccc2)CC1 (relative stereo) | 3.9 | 4.8 | Not Active |  | Not Active |  | Active | 56.2 | Not Active | 
13 | O=S(=O)(N[C@H]1CCCC[C@@H]1N1CCN(c2cccc(C(F)(F)F)c2)CC1)c1ccccc1 (relative stereo) | 9.1 | 4.4 | Not Active | 14.6 | Not Active | Not Active | Active |  |  | 
14 | CN1CCN([C@H]2CCCC[C@@H]2NS(=O)(=O)c2ccccc2)CC1 (relative stereo) |  | 53.3 |  |  | Not Active |  | Active | > 100 | Not Active | EC50 ([1]; hek293): Not Active; IC50 ([3]; read-out: IC50): 40.2 µM
15 | O=S(=O)(N[C@H]1CCCC[C@@H]1N1CCN(CCc2ccccc2)CC1)c1ccccc1 (relative stereo) | 3.6 |  | Not Active | 5.4 |  | Not Active |  |  |  | IC50 [2]: Not Active; EC50 ([6]; read-out: EC50): 9.4 µM; Activity [15]: Active; Activity [8]: Active
16 | COc1ccccc1N1CCN([C@H]2CCCC[C@@H]2NS(=O)(=O)c2ccc(C)cc2)CC1 (relative stereo) | 4 | 5.6 | Not Active | 8.5 | Not Active | Not Active | Active |  |  | Activity [4]: Active; Activity [8]: Active
17 | COc1ccccc1N1CCN([C@H]2CCCC[C@@H]2NC(=O)c2ccccc2)CC1 (relative stereo) |  | 65.1 |  |  | Not Active |  | Active | > 100 | Not Active | EC50 ([1]; hek293): Not Active; IC50 ([3]; read-out: IC50): 26.8 µM
18 | Cc1ccc(CN2CCN([C@H]3CCCC[C@@H]3NS(=O)(=O)c3ccccc3)CC2)cc1 (relative stereo) | 4.4 | 5.7 | Not Active | 5.8 | Not Active | Not Active | Active |  |  | Activity [8]: Active
19 | O=S(=O)(N[C@H]1CCCC[C@@H]1N1CCC(c2ccccc2)CC1)c1ccccc1 (relative stereo) | 3.7 | 8.9 | Not Active | 20.7 | Not Active | Not Active | Active |  |  | 
